What all share (assay type): cell-based
The subject of data set [1] is Staphylococcus aureus ATCC 25923 (sensitive). The source says:
(§1) All microorganisms were purchased from the American Type Culture Collection (ATCC). To determine the antibacterial activity of synthetic peptides against HCAI bacteria, the Staphylococcus aureus strains ATCC 25923 and ATCC 33591 were employed as sensitive and resistant strains, respectively, of a Gram-positive microorganisms species, and Klebsiella pneumoniae ATCC 13883 and ATCC 700603 as sensitive and resistant strains of a Gram-negative species.
(§2) The antibacterial activity assay for peptides and controls was performed according to the National Committee for Clinical Laboratory Standards method M7-A7 [11]. MIC and MBC values were determined using a broth microdilution and growth inhibition method with some modification. Briefly, MIC assays were performed by liquid inhibition growth assay in an untreated sterile 96-well flat-bottom tissue culture plate. Bacteria were cultured overnight on Mueller-Hinton agar (MHA). Three colonies were transferred to 8 mL of Mueller-Hinton broth (MHB) and incubated at 37°C until the mid-exponential phase of growth. The turbidity of the cultures was measured and adjusted spectrophotometrically to McFarland standard 0.5, then diluted to a final concentration of […]. Synthetic antibacterial peptide candidate stock solutions were diluted to final concentrations per well of 200, 100, 50, 25, 12.5, and 6.25 μM. […]
(§3) Wells containing MHB with bacterial inoculum only served as bacterial growth controls. Additional controls included MHB alone and MHB with ciprofloxacin (CIP) (2 μg/mL) and bacteria as a positive control. The microplate was incubated for 24 h at 37°C, and growth inhibition was examined by monitoring the optical density at 620 nm (OD620). MIC was defined as the lowest peptide concentration that inhibited bacteria growth >90%.

The test system of data set [2] is Klebsiella pneumoniae ATCC 13883 (sensitive).
Text: as §1
(§4) To determine the MBC, an aliquot from each well of the MIC assay was spread onto MHA. After 18 h at 37°C, the concentration that inhibited bacterial growth was determined. Each of these tests was performed four times. MBC was defined as the lowest concentration of peptide that reduced the number of bacteria by 99.9% in vitro [12].

For data set [3], the system named is Klebsiella pneumoniae ATCC 700603 (resistant).
Text: as §1, §4

The test system of data set [4] is Staphylococcus aureus ATCC 25923 (sensitive).
Text: as §1, §4
The source holds these as a separate data set.

For data set [5], the system named is Staphylococcus aureus ATCC 33591 (resistant).
Text: as §1, §4

For data set [6], the system named is Klebsiella pneumoniae ATCC 13883 (sensitive).
Text: as §1, §2, §3
The source holds these as a separate data set.

In data set [7] the test system is Klebsiella pneumoniae ATCC 700603 (resistant).
Text: as §1, §2, §3
The source holds these as a separate data set.

Data set [8] relates to Staphylococcus aureus ATCC 33591 (resistant).
Text: as §1, §2, §3
This is another data set of the same source.

In data set [9] the test system is human erythrocytes. Description: Haemolytic activity. As to conditions: 6.25-100 μM peptide; human erythrocytes 2% haematocrit in PBS, 2 h 37°C, OD492; n = 2. How it is done:
Human erythrocytes collected from the blood samples of healthy humans were harvested by centrifugation for 7 min at 162 ×g and washed three times in phosphate-buffered saline (PBS). The erythrocytes (2% haematocrit in PBS) were incubated with peptide molecules at several concentrations (6.25, 12.5, 25, 50, and 100 μM), for 2 h at 37°C. PBS was used as a negative control, and sterile distilled water was used as a positive control for haemolysis (100% of haemolysis). The plate was subsequently centrifuged at 1459 ×g for 10 min at 4°C. Aliquots of the supernatants of each well (75 μL) were carefully transferred to a new sterile 96-well plate, and haemolytic activity was evaluated by measuring the OD492 using an Asys Expert Plus Microplate reader. The experiments were performed in duplicate, and peptide haemolysis activity was calculated.
Lastly, to evaluate the effects of the peptides on normal human erythrocytes, their haemolysis activity was investigated (Figure 6). The percentage of haemolytic activity on human red blood cells after 2 hours was determined via the standard microtitre dilution method. The peptide concentration is reported as μM.

Where two headings read alike, the source gives them in different places. Positions of bridges follow the written chain, without caps; N, C: chain ends. Non-standard residues stand in square brackets, D forms with d. Residues, ends and D or L forms follow the SMILES beside them. Chains are numbered I, II in the order given. No end group written: not given here. Ahx = NCCCCCC(=O)O

Broadly, the MIC is the lowest concentration found to suppress growth. The MBC is the lowest tested concentration that kills the bacteria rather than only halting them. For `CSCC[C@H](NC(=O)[C@H](CCCNC(=N)N)NC(=O)[C@H](Cc1c[nH]c2ccccc12)NC(=O)[C@H](CCC(N)=O)NC(=O)[C@H](Cc1c[nH]c2ccccc12)NC(=O)[C@H](CCCNC(=N)N)NC(=O)[C@H](CCCNC(=N)N)NC(=O)[C@H](CS)NC(=O)[C@H](CCCCN)NC(=O)[C@@H](N)Cc1ccccc1)C(=O)N[C@@H](CCCCN)C(=O)N[C@@H](CCCCN)C(=O)N[C@@H](CC(C)C)C(=O)NCC(=O)N[C@@H](C)C(N)=O` [LfcinB reference, reference compound], the minimal inhibitory concentration (MIC) in data set [1] (ATCC 25923, 24 h) was over 200 µM. For the same molecule, the MBC is over 200 µM in [2] (ATCC 13883, 18 h); over 200 µM in [3] (ATCC 700603, 18 h); over 200 µM in [4] (ATCC 25923, 18 h); 100 µM in data set [5] (ATCC 33591, 18 h).

On to `N=C(N)NCCC[C@H](NC(=O)[C@H](Cc1c[nH]c2ccccc12)NC(=O)[C@H](CCC(N)=O)NC(=O)[C@H](Cc1c[nH]c2ccccc12)NC(=O)[C@H](CCCNC(=N)N)NC(=O)[C@@H](N)CCCNC(=N)N)C(=O)NCCCC[C@H](NC(=O)[C@H](CCCNC(=N)N)NC(=O)[C@H](Cc1c[nH]c2ccccc12)NC(=O)[C@H](CCC(N)=O)NC(=O)[C@H](Cc1c[nH]c2ccccc12)NC(=O)[C@H](CCCNC(=N)N)NC(=O)[C@@H](N)CCCNC(=N)N)C(=O)NCCCCCC(=O)N[C@@H](CSSC[C@H](NC(=O)CCCCCNC(=O)[C@H](CCCCNC(=O)[C@H](CCCNC(=N)N)NC(=O)[C@H](Cc1c[nH]c2ccccc12)NC(=O)[C@H](CCC(N)=O)NC(=O)[C@H](Cc1c[nH]c2ccccc12)NC(=O)[C@H](CCCNC(=N)N)NC(=O)[C@@H](N)CCCNC(=N)N)NC(=O)[C@H](CCCNC(=N)N)NC(=O)[C@H](Cc1c[nH]c2ccccc12)NC(=O)[C@H](CCC(N)=O)NC(=O)[C@H](Cc1c[nH]c2ccccc12)NC(=O)[C@H](CCCNC(=N)N)NC(=O)[C@@H](N)CCCNC(=N)N)C(N)=O)C(N)=O` [Tetrameric] (I: H-RRWQWRK[Ahx]C-NH2 / II: H-RRWQWRK[Ahx]C-NH2 / III: H-RRWQWR / IV: H-RRWQWR; amide I:7-III:C, II:7-IV:C; disulfide I:9-II:9), for which the MIC in data set [6] (ATCC 13883, 24 h) was 6.25 µM; in data set [6] (K. pneumoniae ATCC 13883 sensitive, MHB, 24 h 37°C, OD620, >90% inhibition, average of four independent experiments in duplicate), 29 µg/mL; in data set [6] (K. pneumoniae ATCC 13883 sensitive, MHB, 24 h 37°C, OD620, >90% inhibition, average of four independent experiments in duplicate, listed as tetrameric), at least 29 µg/mL; in data set [6] (K. pneumoniae ATCC 13883 sensitive, value in parentheses, MHB, 24 h 37°C, OD620, >90% inhibition), ≥ 6,25 µM; in data set [7] (ATCC 700603, 24 h) it was 12.5 µM; in [7] (K. pneumoniae ATCC 700603 resistant, MHB, 24 h 37°C, OD620, >90% inhibition, average of four independent experiments in duplicate) it was 57 µg/mL. Further, the minimum inhibitory concentration (MIC) was at least 57 µg/mL in data set [7] (K. pneumoniae ATCC 700603 resistant, MHB, 24 h 37°C, OD620, >90% inhibition, average of four independent experiments in duplicate, listed as tetrameric); ≥ 12,5 µM in data set [7] (K. pneumoniae ATCC 700603 resistant, value in parentheses, MHB, 24 h 37°C, OD620, >90% inhibition); 6.25 µM in data set [1] (ATCC 25923, 24 h); 29 µg/mL in data set [1] (S. aureus ATCC 25923 sensitive, MHB, 24 h 37°C, OD620, lowest concentration inhibiting growth >90%, average of four independent experiments in duplicate); at least 29 µg/mL in data set [1] (S. aureus ATCC 25923 sensitive, MHB, 24 h 37°C, OD620, lowest concentration inhibiting growth >90%, average of four independent experiments in duplicate, listed as tetrameric); at least 6.25 µM in data set [1] (S. aureus ATCC 25923 sensitive, value in parentheses, MHB, 24 h 37°C, OD620, >90% inhibition, average of four independent experiments in duplicate). Further, the MIC in data set [8] (ATCC 33591, 24 h) was 12.5 µM; in data set [8] (S. aureus ATCC 33591 resistant, MHB, 24 h 37°C, OD620, >90% inhibition, average of four independent experiments in duplicate) it was 57 µg/mL; in data set [8] (S. aureus ATCC 33591 resistant, MHB, 24 h 37°C, OD620, >90% inhibition, average of four independent experiments in duplicate, listed as tetrameric), at least 57 µg/mL; in data set [8] (S. aureus ATCC 33591 resistant, value in parentheses, MHB, 24 h 37°C, OD620, >90% inhibition), at least 12.5 µM. Further, the “concentration at which antibacterial activity was displayed (dose-response profile)” value in [1] (S. aureus sensitive strain, Figure 2) is at least 29 µg/mL. Besides, the MBC in data set [2] (ATCC 13883, 18 h) is reported as 25 µM; in data set [2] (K. pneumoniae ATCC 13883 sensitive, MHA, 18 h 37°C, 99.9% reduction) it was 115 µg/mL; in [2] (K. pneumoniae ATCC 13883 sensitive, MHA, 18 h 37°C, 99.9% reduction, listed as tetrameric), at least 115 µg/mL; in data set [2] (K. pneumoniae ATCC 13883 sensitive, value in parentheses, MHA, 18 h 37°C, 99.9% reduction) it was at least 25 µM; in data set [3] (ATCC 700603, 18 h), 25 µM; in [3] (K. pneumoniae ATCC 700603 resistant, MHA, 18 h 37°C, 99.9% reduction) it was 115 µg/mL. The MBC in [3] (K. pneumoniae ATCC 700603 resistant, MHA, 18 h 37°C, 99.9% reduction, listed as tetrameric) is reported as at least 115 µg/mL; in [3] (K. pneumoniae ATCC 700603 resistant, value in parentheses, MHA, 18 h 37°C, 99.9% reduction) it was at least 25 µM; in [4] (ATCC 25923, 18 h), 12.5 µM; in data set [4] (S. aureus ATCC 25923 sensitive, MHA, 18 h 37°C, 99.9% reduction, average of four independent experiments), 57 µg/mL; in data set [4] (S. aureus ATCC 25923 sensitive, MHA, 18 h 37°C, 99.9% reduction, average of four independent experiments, listed as tetrameric), at least 57 µg/mL; in data set [4] (S. aureus ATCC 25923 sensitive, value in parentheses, MHA, 18 h 37°C, 99.9% reduction), at least 12.5 µM. Besides, the MBC is 12.5 µM in data set [5] (ATCC 33591, 18 h); 57 µg/mL in [5] (S. aureus ATCC 33591 resistant, MHA, 18 h 37°C, 99.9% reduction); at least 57 µg/mL in [5] (S. aureus ATCC 33591 resistant, MHA, 18 h 37°C, 99.9% reduction, listed as tetrameric); at least 12.5 µM in data set [5] (S. aureus ATCC 33591 resistant, value in parentheses, MHA, 18 h 37°C, 99.9% reduction). Besides, the “MBC as a function of the MBC of the tetrameric peptide” value in data set [2] (K. pneumoniae sensitive strain, from concentrations in μg/mL) is 1 x MBC; in data set [3] (K. pneumoniae resistant strain, from concentrations in μg/mL) it was 1 x MBC; in data set [4] (S. aureus sensitive strain, from concentrations in μg/mL) it was 1 x MBC; in data set [5] (S. aureus resistant strain, from concentrations in μg/mL), 1 x MBC.

Take RRWQWR-NH2 [Motif]: the MBC in data set [2] (ATCC 13883, 18 h) is over 200 µM; in data set [3] (ATCC 700603, 18 h), over 200 µM; in data set [4] (ATCC 25923, 18 h), over 200 µM. Further, in [9], the “haemolysis activity over the concentrations tested” value is reported as “no haemolysis activity”.

For the molecule RWQWRWQWR [Palindromic], the MIC in data set [6] (ATCC 13883, 24 h) amounted to 50 µM; in [7] (ATCC 700603, 24 h) it was 50 µM; in data set [1] (ATCC 25923, 24 h), 50 µM; in data set [8] (ATCC 33591, 24 h) it was 6.25 µM. For the same molecule, the minimum bactericidal concentration (MBC) is given as 100 µM in data set [2] (ATCC 13883, 18 h); 100 µM in data set [3] (ATCC 700603, 18 h); 100 µM in data set [4] (ATCC 25923, 18 h); 50 µM in data set [5] (ATCC 33591, 18 h).

For the origin of these results see paper PMC6015718, “Effect of Polyvalence on the Antibacterial Activity of a Synthetic Peptide Derived from Bovine Lactoferricin against Healthcare-Associated Infectious Pathogens” (BioMed Research International, 2018).
